This note sets out measurements from US10590078B2, “Sodium channel blockers” (Daewoong Pharmaceutical Co., Ltd., priority 2015, dated 2020).

Structures are written as SMILES. Some results are limits rather than exact numbers.

In one assay the target is human sodium ion channel 1.7 (hNav1.7) (Homo sapiens, UniProt Q15858). Put plainly: Blocking effect against sodium ion channel Nav1.7, IonFlux16 auto patch clamp in hNav1.7 HEK293 cells. It is filed as cell-based.
Sequence of human sodium ion channel 1.7 (hNav1.7) (Q15858 whole entry): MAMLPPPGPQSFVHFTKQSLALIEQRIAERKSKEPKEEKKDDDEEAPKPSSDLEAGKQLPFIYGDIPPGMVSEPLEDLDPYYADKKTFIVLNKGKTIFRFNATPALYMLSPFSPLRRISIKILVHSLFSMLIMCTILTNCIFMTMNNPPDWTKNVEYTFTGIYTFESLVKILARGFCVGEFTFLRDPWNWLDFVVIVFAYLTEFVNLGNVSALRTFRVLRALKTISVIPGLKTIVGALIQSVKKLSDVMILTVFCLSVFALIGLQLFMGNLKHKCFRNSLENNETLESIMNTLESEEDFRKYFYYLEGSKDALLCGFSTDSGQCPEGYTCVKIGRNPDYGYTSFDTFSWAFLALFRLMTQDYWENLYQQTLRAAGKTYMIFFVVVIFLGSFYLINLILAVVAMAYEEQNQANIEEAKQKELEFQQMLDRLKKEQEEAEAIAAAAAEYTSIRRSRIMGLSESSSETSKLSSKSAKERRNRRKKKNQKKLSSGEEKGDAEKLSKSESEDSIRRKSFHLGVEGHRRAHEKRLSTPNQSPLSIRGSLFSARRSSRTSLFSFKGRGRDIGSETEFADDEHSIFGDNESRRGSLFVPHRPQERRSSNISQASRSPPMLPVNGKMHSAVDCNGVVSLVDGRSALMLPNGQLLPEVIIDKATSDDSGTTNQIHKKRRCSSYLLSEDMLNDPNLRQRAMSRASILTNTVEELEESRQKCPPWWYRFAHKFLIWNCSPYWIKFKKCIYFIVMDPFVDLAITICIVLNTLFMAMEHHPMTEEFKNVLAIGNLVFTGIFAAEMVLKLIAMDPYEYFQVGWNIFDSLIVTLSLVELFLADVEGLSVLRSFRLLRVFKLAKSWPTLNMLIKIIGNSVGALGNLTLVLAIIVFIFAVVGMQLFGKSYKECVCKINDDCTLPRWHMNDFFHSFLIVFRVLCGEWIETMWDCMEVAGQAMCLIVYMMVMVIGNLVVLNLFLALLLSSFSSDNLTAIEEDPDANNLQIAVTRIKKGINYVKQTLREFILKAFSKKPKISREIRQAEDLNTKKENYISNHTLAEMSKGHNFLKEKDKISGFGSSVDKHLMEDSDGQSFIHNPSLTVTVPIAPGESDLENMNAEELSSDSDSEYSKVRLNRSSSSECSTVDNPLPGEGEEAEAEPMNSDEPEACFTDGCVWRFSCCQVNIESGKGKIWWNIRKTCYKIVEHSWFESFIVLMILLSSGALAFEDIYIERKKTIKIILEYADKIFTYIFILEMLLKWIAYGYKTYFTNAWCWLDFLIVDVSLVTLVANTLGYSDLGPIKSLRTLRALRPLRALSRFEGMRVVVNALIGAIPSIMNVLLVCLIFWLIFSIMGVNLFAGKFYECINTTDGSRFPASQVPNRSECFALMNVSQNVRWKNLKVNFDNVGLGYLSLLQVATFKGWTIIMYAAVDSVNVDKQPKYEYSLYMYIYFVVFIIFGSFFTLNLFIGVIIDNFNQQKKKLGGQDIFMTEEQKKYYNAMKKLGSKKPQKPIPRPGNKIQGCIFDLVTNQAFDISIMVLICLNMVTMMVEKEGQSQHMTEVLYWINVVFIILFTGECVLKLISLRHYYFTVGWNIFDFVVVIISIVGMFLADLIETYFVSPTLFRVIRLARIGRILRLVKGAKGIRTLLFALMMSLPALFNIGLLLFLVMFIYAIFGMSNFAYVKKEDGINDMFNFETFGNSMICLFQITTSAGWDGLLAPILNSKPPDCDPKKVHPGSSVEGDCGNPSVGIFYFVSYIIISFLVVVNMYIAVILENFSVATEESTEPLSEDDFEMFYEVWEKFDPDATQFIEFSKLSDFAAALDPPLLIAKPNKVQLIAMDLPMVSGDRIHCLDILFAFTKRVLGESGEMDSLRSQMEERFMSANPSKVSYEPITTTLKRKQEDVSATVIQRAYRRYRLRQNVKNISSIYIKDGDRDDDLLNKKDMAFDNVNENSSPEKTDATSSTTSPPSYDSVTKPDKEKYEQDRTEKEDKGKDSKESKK
Settings: not given
On the technique in general: Patch clamp records ionic current or voltage across a cell membrane.
Regarding `Cc1cccc(-c2nn(-c3cc(F)c(C(=O)NS(C)(=O)=O)cc3Cl)c3ccc(Cl)cc23)c1` [Example 52, 5-chloro-4-(5-chloro-3-(m-tolyl)-1H-indazol-1-yl)-2-fluoro-N-(methylsulfonyl)benzamide], half-maximal inhibition (IC50) was put at 39 nM.

Still in this assay, the particulars now being: hNav1.7 HEK293 cells; inhibition of peak current after 50 seconds treatment; eight concentrations; read-out: IC50.
Consider `CS(=O)(=O)NC(=O)c1cc(Cl)c(-n2nc(Cl)c3cc(-c4ccc(F)nc4)ccc32)cc1F` [Example 245, 5-chloro-4-(3-chloro-5-(6-fluoropyridin-3-yl)-1H-indazol-1-yl)-2-fluoro-N-(methylsulfonyl)benzamide], for which the IC50 stood at 1670 nM.

With `CS(=O)(=O)NC(=O)c1cc(Cl)c(-n2nc(-c3cc(F)cc(Cl)c3)c3cc(Cl)ccc32)cc1F` [Example 73, 5-chloro-4-(5-chloro-3-(3-chloro-5-fluorophenyl)-1H-indazol-1-yl)-2-fluoro-N-(methylsulfonyl)benzamide], the IC50 worked out at 30 nM.

For the compound `CS(=O)(=O)NC(=O)c1cc(Cl)c(-n2cc(-c3ccc(C#N)cc3)c3cc(Cl)cnc32)cc1F` [Example 187, 5-chloro-4-(5-chloro-3-(4-cyanophenyl)-1H-pyrrolo[2,3-b]pyridin-1-yl)-2-fluoro-N-(methylsulfonyl)benzamide], the IC50 amounted to 620 nM.

Regarding `COc1ccc(-c2nn(-c3cc(Cl)c(C(=O)NS(C)(=O)=O)cc3F)c3ccc(Cl)cc23)cc1` [Example 108, 2-chloro-4-(5-chloro-3-(4-methoxyphenyl)-1H-indazol-1-yl)-5-fluoro-N-(methylsulfonyl)benzamide], the half-inhibitory concentration (IC50) worked out at 1480 nM.

On to `CS(=O)(=O)NC(=O)c1cc(Cl)c(-n2nc(/C=C/c3ccc(C(F)(F)F)cc3)c3cc(Cl)ccc32)cc1F` [Example 137, (E)-5-chloro-4-(5-chloro-3-(4-(trifluoromethyl)styryl)-1H-indazol-1-yl)-2-fluoro-N-(methylsulfonyl)benzamide], for which the 50% inhibitory concentration (IC50) was determined as 680 nM.

Consider `CS(=O)(=O)NC(=O)c1cc(Cl)c(-n2nc(-c3ccccc3)c3cc(Cl)ccc32)cc1F` [Example 48, 5-chloro-4-(5-chloro-3-phenyl-1H-indazol-1-yl)-2-fluoro-N-(methylsulfonyl)benzamide], for which the IC50 stood at 48 nM.

As for `Cn1nccc1-c1ccc2c(cnn2-c2cc(F)c(S(=O)(=O)Nc3cscn3)cc2Cl)c1` [Example 285, 5-chloro-2-fluoro-4-(5-(1-methyl-1H-pyrazol-5-yl)-1H-indazol-1-yl)-N-(thiazol-4-yl)benzenesulfonamide], the concentration for half-maximal inhibition (IC50) is more than 10000 nM.

As to `CS(=O)(=O)NC(=O)c1ccc(-n2nc(-c3ccc(F)cc3)c3cc(Cl)ccc32)c(C#N)c1` [Example 101, 4-(5-chloro-3-(4-fluorophenyl)-1H-indazol-1-yl)-3-cyano-N-(methylsulfonyl)benzamide], the IC50 worked out at 3020 nM.

Consider `CS(=O)(=O)NC(=O)c1cc(Cl)c(-n2nc(-c3ccc(Cl)cc3)c3cc(Cl)ccc32)cc1F` [Example 67, 5-chloro-4-(5-chloro-3-(4-chlorophenyl)-1H-indazol-1-yl)-2-fluoro-N-(methylsulfonyl)benzamide], for which the IC50 worked out at 33 nM.

Take `CS(=O)(=O)NC(=O)c1cc(Cl)c(-n2nc(Cl)c3cc(-c4ccccc4Cl)ccc32)cc1F` [Example 252, 5-chloro-4-(3-chloro-5-(2-chlorophenyl)-1H-indazol-1-yl)-2-fluoro-N-(methylsulfonyl)benzamide]: the half-inhibitory concentration (IC50) was found to be 240 nM.

Regarding `CS(=O)(=O)NC(=O)c1cc(Cl)c(-n2nc(-c3cccc(Cl)c3)c3cc(F)ccc32)cc1F` [Example 149, 5-chloro-4-(3-(3-chlorophenyl)-5-fluoro-1H-indazol-1-yl)-2-fluoro-N-(methylsulfonyl)benzamide], the concentration for half-maximal inhibition (IC50) turned out to be 40 nM.

Turning to `CS(=O)(=O)NC(=O)c1cc(Cl)c(-n2nc(Cl)c3cc(C(F)(F)F)ccc32)cc1F` [Example 18, 5-chloro-4-(3-chloro-5-(trifluoromethyl)-1H-indazol-1-yl)-2-fluoro-N-(methylsulfonyl)benzamide], the IC50 turned out to be 587 nM.

For `CS(=O)(=O)NC(=O)c1cc(Cl)c(-n2nc(-c3cccc(F)c3)c3ccccc32)cc1F` [Example 171, 5-chloro-2-fluoro-4-(3-(3-fluorophenyl)-1H-indazol-1-yl)-N-(methylsulfonyl)benzamide], the concentration for half-maximal inhibition (IC50) was 190 nM.

On to `N#Cc1cc(S(=O)(=O)Nc2cscn2)ccc1-n1nc(Cl)c2cc(C(F)(F)F)ccc21` [Example 278, 4-(3-chloro-5-(trifluoromethyl)-1H-indazol-1-yl)-3-cyano-N-(thiazol-4-yl)benzenesulfonamide], for which the IC50 was determined as 8910 nM.

For `CS(=O)(=O)NC(=O)c1cc(Cl)c(-n2cc(-c3ccccc3Cl)c3cc(F)cnc32)cc1F` [Example 207, 5-chloro-4-(3-(2-chlorophenyl)-5-fluoro-1H-pyrrolo[2,3-b]pyridin-1-yl)-2-fluoro-N-(methylsulfonyl)benzamide], the IC50 is 140 nM.

As to `CS(=O)(=O)NC(=O)c1ccc(-n2cc(-c3ccc(F)cc3)c3cc(Cl)ccc32)nc1` [Example 275, 6-(5-chloro-3-(4-fluorophenyl)-1H-indol-1-yl)-N-(methylsulfonyl)nicotinamide], the IC50 was 1230 nM.

As for `CS(=O)(=O)NC(=O)c1cc(Cl)c(-n2nc(-c3cccc(C(F)(F)F)c3)c3cc(F)ccc32)cc1F` [Example 150, 5-chloro-2-fluoro-4-(5-fluoro-3-(3-(trifluoromethyl)phenyl)-1H-indazol-1-yl)-N-(methylsulfonyl)benzamide], the half-inhibitory concentration (IC50) was determined as 180 nM.

As to `Cn1cc(-c2nn(-c3cc(F)c(C(=O)NS(C)(=O)=O)cc3Cl)c3ccc(Cl)cc23)cn1` [Example 88, 5-chloro-4-(5-chloro-3-(1-methyl-1H-pyrazol-4-yl)-1H-indazol-1-yl)-2-fluoro-N-(methylsulfonyl)benzamide], the IC50 is more than 10000 nM.

In the case of `COc1ncccc1-c1nn(-c2ccc(C(=O)NS(C)(=O)=O)cc2C#N)c2ccc(Cl)cc12` [Example 106, 4-(5-chloro-3-(2-methoxypyridin-3-yl)-1H-indazol-1-yl)-3-cyano-N-(methylsulfonyl)benzamide], the 50% inhibitory concentration (IC50) came to 6020 nM.

As for `CS(=O)(=O)NC(=O)c1cc(Cl)c(-n2cc(-c3cc(F)cc(Cl)c3)c3cccnc32)cc1F` [Example 220, 5-chloro-4-(3-(3-chloro-5-fluorophenyl)-1H-pyrrolo[2,3-b]pyridin-1-yl)-2-fluoro-N-(methylsulfonyl)benzamide], the IC50 was determined as 540 nM.

With `CS(=O)(=O)NC(=O)c1cc(Cl)c(-n2cc(-c3cccc(C(F)(F)F)c3)c3cc(Cl)cnc32)cc1F` [Example 192, 5-chloro-4-(5-chloro-3-(3-(trifluoromethyl)phenyl)-1H-pyrrolo[2,3-b]pyridin-1-yl)-2-fluoro-N-(methylsulfonyl)benzamide], the half-inhibitory concentration (IC50) was determined as 270 nM.

Take `Cn1nccc1-c1nn(-c2cc(F)c(S(=O)(=O)Nc3cscn3)cc2Cl)c2ccc(Cl)cc12` [Example 282, 5-chloro-4-(5-chloro-3-(1-methyl-1H-pyrazol-5-yl)-1H-indazol-1-yl)-2-fluoro-N-(thiazol-4-yl)benzenesulfonamide]: the IC50 worked out at 1650 nM.

For `CS(=O)(=O)NC(=O)c1cc(Cl)c(-n2cc(-c3cccc(Cl)c3)c3cc(F)cnc32)cc1F` [Example 208, 5-chloro-4-(3-(3-chlorophenyl)-5-fluoro-1H-pyrrolo[2,3-b]pyridin-1-yl)-2-fluoro-N-(methylsulfonyl)benzamide], the IC50 was determined as 50 nM.

For the compound `NC(=O)NNC(=O)c1cc(Cl)c(-n2nc(-c3ccc(Cl)cc3F)c3cc(Cl)ccc32)cc1F` [Example 290, 2-(5-chloro-4-(5-chloro-3-(4-chloro-2-fluorophenyl)-1H-indazol-1-yl)-2-fluorobenzoyl)hydrazine-1-carboxamide], the half-inhibitory concentration (IC50) is 11200 nM.

For the compound `Cn1cc(-c2nn(-c3cc(F)c(C(=O)NS(C)(=O)=O)cc3Cl)c3ccc(Cl)cc23)ccc1=O` [Example 130, 5-chloro-4-(5-chloro-3-(1-methyl-6-oxo-1,6-dihydropyridin-3-yl)-1H-indazol-1-yl)-2-fluoro-N-(methylsulfonyl)benzamide], the concentration for half-maximal inhibition (IC50) is more than 10000 nM.

On to `CS(=O)(=O)NC(=O)c1cc(Cl)c(-n2nc(/C=C/c3ccccn3)c3cc(Cl)ccc32)cc1F` [Example 134, (E)-5-chloro-4-(5-chloro-3-(2-(pyridin-2-yl)vinyl)-1H-indazol-1-yl)-2-fluoro-N-(methylsulfonyl)benzamide], for which the IC50 came out at 2170 nM.

With `CN(C)S(=O)(=O)NC(=O)c1cc(Cl)c(-n2nc(Cl)c3cc(Cl)ccc32)cc1F` [Example 7, 5-chloro-4-(3,5-dichloro-1H-indazol-1-yl)-N—(N,N-dimethylsulfamoyl)-2-fluorobenzamide], the half-inhibitory concentration (IC50) was determined as 227 nM.

For `CS(=O)(=O)NC(=O)c1cc(Cl)c(-n2nc(-c3ccc(Cl)c(F)c3)c3cc(Cl)ccc32)cc1F` [Example 80, 5-chloro-4-(5-chloro-3-(4-chloro-3-fluorophenyl)-1H-indazol-1-yl)-2-fluoro-N-(methylsulfonyl)benzamide], the IC50 was 80 nM.

With `NC(=O)c1cc(Cl)c(-n2nc(-c3ccc(Cl)cc3F)c3cc(Cl)ccc32)cc1F` [Example 292, 5-chloro-4-(5-chloro-3-(4-chloro-2-fluorophenyl)-1H-indazol-1-yl)-2-fluorobenzamide], the IC50 was more than 10000 nM.

Regarding `CS(=O)(=O)NC(=O)c1cc(Cl)c(-n2nc(-c3ccc(Cl)cc3)c3cc(F)ccc32)cc1F` [Example 154, 5-chloro-4-(3-(4-chlorophenyl)-5-fluoro-1H-indazol-1-yl)-2-fluoro-N-(methylsulfonyl)benzamide], the half-maximal inhibitory concentration (IC50) came out at 60 nM.

With `CS(=O)(=O)NC(=O)c1cc(Cl)c(-n2nc(/C=C/c3ccccc3Cl)c3cc(Cl)ccc32)cc1F` [Example 136, (E)-5-chloro-4-(5-chloro-3-(2-chlorostyryl)-1H-indazol-1-yl)-2-fluoro-N-(methylsulfonyl)benzamide], the half-maximal inhibitory concentration (IC50) worked out at 1010 nM.

As to `CS(=O)(=O)NC(=O)c1cc(Cl)c(-n2cc(C(=O)O)c3cc(Cl)ccc32)cc1F` [Example 265, 5-chloro-1-(2-chloro-5-fluoro-4-((methylsulfonyl)carbamoyl)phenyl)-1H-indole-3-carboxylic acid], the half-inhibitory concentration (IC50) lay in the range of 300 to 1000 nM.

As a reminder, the IC50 is the concentration that inhibits the measured activity by half.
